Test results from patent US11795378B2, “Iron control composition, make, and use in carbonate stimulation” (King Fahd University of Petroleum and Minerals, priority 2019, dated 2023).

Legend:
[1] = 5% chelating agent, 3000 ppm ferric ions; cited from earlier work
[2] = Solubility and stability test of iron in concentrated HCl chelating agent formulations; assay type: physicochemical; details: 5 wt. % single chelating agent, 72° F. (22.2° C.)
Experimental: The solubility test was conducted at varying HCl and chelating agent concentrations. During the solubility test the concentration of HCl was set to either 20 wt. % (low) or 28 wt. % (high) concentration.
Each chelating agent was used alone with varied concentrations ranging from 1 to 10 wt %.
To the evaluate the capability of the generated formulation to sustain the iron in the solution without precipitation, 3000 ppm of iron was dissolved in the respective formulations, and, after that, the stability of the formulation as function of time was evaluated.
The effect of the pH on the performance of exemplary inventive formulations was evaluated by repeating the solubility and stability tests at varied pH values.

[3] = 20 wt. % HCl, 3000 ppm iron, 96 hours
[4] = 28 wt. % HCl at pH 5, 3000 ppm ferric ions, after 96 hours

Row | iron precipitation during stability evaluation [2, 3] | iron precipitation during stability evaluation [2, 4] | Compound | pH up to which ferric ions are kept in solution [1]
1 | no precipitation | precipitation | O=C(O)CC[C@@H](C(=O)O)N(CC(=O)O)CC(=O)O [GLDA, glutamic acid N,N-diacetic acid] | less than 3.0
2 | no precipitation | precipitation | O=C(O)CN(CCO)CCN(CC(=O)O)CC(=O)O [HEDTA, hydroxyethyl ethylenediamine triacetic acid] | –
